# Measurements reported in patent US10173968B2, “Bishydrazone-based antifungal agents” (University of Kentucky Research Foundation, priority 2016, dated 2019).
# Read-outs that look alike come from different tables or passages of the source.
# Legend:
# [1] = test system: B. subtilis 168; assay: Antibacterial MIC, double-dilution method; type: cell-based; settings: Bacillus subtilis, strain A, Gram-positive
# Outline: (§1)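 Compounds were first screened at 500 μM each, then MICs were read by serial twofold dilution of the compound against the bacterial strain.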
# [2] = test system: E. cloacae ATCC 13047; assay: Antibacterial MIC, double-dilution method; type: cell-based; settings: Enterobacter cloacae, ATCC13047, strain F, Gram-negative, read-out: MIC
# Outline: as §1
# [3] = test system: E. coli MC1061; assay: Antibacterial MIC, double-dilution method; type: cell-based; settings: Escherichia coli, strain G, Gram-negative, read-out: MIC
# Outline: as §1
# [4] = test system: L. monocytogenes ATCC 19115; assay: Antibacterial MIC, double-dilution method; type: cell-based; settings: Listeria monocytogenes, ATCC19115, strain B, Gram-positive, read-out: MIC
# Outline: as §1
# [5] = test system: M. smegmatis MC2-155; assay: Antibacterial MIC, double-dilution method; type: cell-based; settings: Mycolicibacterium smegmatis, MC2155, strain K, mycobacterial, read-out: MIC
# Outline: as §1
# [6] = test system: P. aeruginosa ATCC 27853; assay: Antibacterial MIC, double-dilution method; type: cell-based; settings: Pseudomonas aeruginosa, ATCC27853, strain I, Gram-negative, read-out: MIC
# Outline: as §1
# [7] = test system: S. enterica ATCC 14028; assay: Antibacterial MIC, double-dilution method; type: cell-based; settings: Salmonella enterica, ATCC14028, strain J, Gram-negative, read-out: MIC
# Outline: as §1
# [8] = test system: VRE; assay: Antibacterial MIC, double-dilution method; type: cell-based; settings: Enterococcus, strain D, Gram-positive, read-out: MIC
# Outline: as §1
# [9] = test system: L. monocytogenes ATCC 19115 (strain B); type: cell-based, Listeria monocytogenes
# Protocol: (§2) The bacteria were grown in MH broth at 37° C. for these experiments. […] The resulting cultures were diluted 1:1000 and grown until the culture reached ˜300,000 cfu/mL. That culture was then further diluted 1:1000 and used to determine the next round of MIC values.
# [10] = test system: MRSA (strain C); type: cell-based, Staphylococcus aureus
# Protocol: as §2
# [11] = test system: VRE (strain D); type: cell-based, enterococcus
# Protocol: as §2
# [12] = test system: P. aeruginosa ATCC 27853 (strain I); type: cell-based
# Protocol: as §2
# [13] = test system: all bacterial strains tested; assay: Antibacterial MIC, summary over the panel; type: cell-based; settings: read-out: MIC, span over all bacterial strains tested
# Protocol: MIC values were determined against a variety of Gram-positive (strains A-D) and Gram-negative (E-J) bacterial and mycobacterial (K) strains using the double-dilution method, as previously published. Preliminary screening was performed using 500 μM of each compound.
# [14] = test system: A. baumannii ATCC 19606; assay: Antibacterial MIC, double-dilution method; type: cell-based; settings: Acinetobacter baumannii, ATCC19606, strain E, Gram-negative, read-out: MIC
# Outline: as §1
# [15] = test system: K. pneumoniae ATCC 27736; assay: Antibacterial MIC, double-dilution method; type: cell-based; settings: Klebsiella pneumoniae, ATCC27736, strain H, Gram-negative, read-out: MIC
# Outline: as §1
# [16] = test system: MRSA; assay: Antibacterial MIC, double-dilution method; type: cell-based; settings: Staphylococcus aureus, strain C, Gram-positive, read-out: MIC
# Outline: as §1
# [17] = test system: C. albicans ATCC 1003; assay: Antifungal MIC, CLSI M27-A3 microbroth dilution; type: cell-based, Candida albicans; settings: Candida albicans, ATCC1003, read-out: MIC
# Protocol: (§3) In vitro MIC testing was performed according to the CLSI M27-A3 standard microbroth dilution methodology for the susceptibility testing of yeasts with minor modifications.
# [18] = test system: C. albicans ATCC 10231; assay: Antifungal MIC, CLSI M27-A3 microbroth dilution; type: cell-based, Candida albicans; settings: Candida albicans, ATCC10231, C. albicans ATCC 10231, resistant to FLC, ITC, and VOR, read-out: MIC
# Protocol: as §3
# [19] = test system: C. albicans ATCC 1237; assay: Antifungal MIC, CLSI M27-A3 microbroth dilution; type: cell-based, Candida albicans; settings: Candida albicans, ATCC1237, C. albicans ATCC 1237, resistant to FLC, ITC, and VOR, read-out: MIC
# Protocol: as §3
# [20] = test system: C. albicans ATCC 2310; assay: Antifungal MIC, CLSI M27-A3 microbroth dilution; type: cell-based, Candida albicans; settings: Candida albicans, ATCC2310, C. albicans ATCC 2310, susceptible to FLC, ITC, and VOR, read-out: MIC
# Protocol: as §3
# [21] = test system: C. albicans ATCC 2876; assay: Antifungal MIC, CLSI M27-A3 microbroth dilution; type: cell-based, Candida albicans; settings: Candida albicans, ATCC2876, C. albicans ATCC 2876, susceptible to FLC, ITC, and VOR, read-out: MIC
# Protocol: as §3
# [22] = test system: C. albicans ATCC 64124; assay: Antifungal MIC, CLSI M27-A3 microbroth dilution; type: cell-based, Candida albicans; settings: Candida albicans, ATCC64124, C. albicans ATCC 64124, resistant to FLC, ITC, and VOR, read-out: MIC
# Protocol: as §3
# [23] = test system: C. albicans ATCC 90819; assay: Antifungal MIC, CLSI M27-A3 microbroth dilution; type: cell-based, Candida albicans; settings: Candida albicans, ATCC90819, C. albicans ATCC 90819, resistant to FLC, ITC, and VOR, read-out: MIC
# Protocol: as §3
# [24] = test system: C. albicans ATCC 10231; assay: Intracellular ROS production, DCFH-DA fluorescence assay; type: cell-based, Candida albicans; settings: positive control at 1 mM, 1 h at 35° C.
# Excerpt: We used the 2′,7′-dichlorodihydrofluorescein diacetate (DCFH-DA) dye as a probe to measure the production of ROS in yeast cells upon treatment with our compounds. DCFH-DA can easily cross the cell membranes and be hydrolyzed by cellular esterases to the non-fluorescent 2′,7′-dichlorodihydrofluorescein (DCFH), which can further be oxidized to the highly fluorescent 2′,7′-dichlorofluorescein (DCF) by the intracellular ROS. Five mL of RPMI 1640 medium were inoculated using a single colony of C. albicans ATCC 10231 (strain A) in a Falcon tube and grown overnight at 35° C. at 200 rpm. The overnight culture was diluted by adding 200 μL of yeast cells to 800 μL of the same medium. […] H2O2 at 1 mM was also used as a positive control. Cells were centrifuged and washed twice with PBS buffer (pH 7.2). Cells were resuspended in the same buffer and incubated with DCFH-DA (20 μg/mL) for 30 min in the dark. Afterwards, cells were centrifuged and washed with PBS buffer to remove excess DCFH-DA. Glass slides with 10-15 μL of each mixture were prepared and observed in bright field and fluorescence modes (FITC filter set, excitation and emission wavelengths of 488 and 512 nm, respectively) using a Zeiss Axovert 200M fluorescence microscope (FIG. 3).
# [25] = after 15 serial passages at sub-inhibitory concentrations
smiles,measurement,setting,value
"NCC[C@H](O)C(=O)N[C@@H]1C[C@H](N)[C@@H](O[C@H]2O[C@H](CN)[C@@H](O)[C@H](O)[C@H]2O)[C@H](O)[C@H]1O[C@H]1O[C@H](CO)[C@@H](O)[C@H](N)[C@H]1O [AMK, amikacin, reference compound]",MIC,[1]; converted from μM,3 to 12.2 µg/mL
same,MIC,[1]; range 0.5 to 500 μM,3.9 to 15.6 µM
same,MIC,[2]; converted from μM,48.9 µg/mL
same,MIC,[2]; range 0.5 to 500 μM,62.5 µM
same,MIC,[3]; converted from μM,24.5 µg/mL
same,MIC,[3]; range 0.5 to 500 μM,31.3 µM
same,MIC,[4]; range 0.5 to 500 μM,3.9 µM
same,MIC,[5]; converted from μM,12.2 µg/mL
same,MIC,[5]; range 0.5 to 500 μM,15.6 µM
same,MIC,[6]; converted from μM,48.9 µg/mL
same,MIC,[6]; range 0.5 to 500 μM,62.5 µM
same,MIC,[7]; converted from μM,3 to 6.1 µg/mL
same,MIC,[7]; range 0.5 to 500 μM,3.9 to 7.8 µM
same,MIC,[8]; converted from μM,97.7 µg/mL
same,MIC,[8]; range 0.5 to 500 μM,125 µM
same,development of resistance (passages after which resistance developed),[9]; up to 15 passages,15 passages
same,development of resistance (passages after which resistance developed),[10]; up to 15 passages,12 passages
same,development of resistance (passages after which resistance developed),[11]; up to 15 passages,3 passages
same,development of resistance (passages after which resistance developed),[12]; up to 15 passages,5 passages
same,MIC,[13],3.9 to 125 µM
"C/C(=N\NC(=N)N)c1ccc(CCc2ccc(/C(C)=N/NC(=N)N)cc2)cc1.Cl.Cl [Compound 4D, (2E,2′E)-2,2′-((Ethane-1,2-diylbis(4,1-phenylene))bis(ethan-1-yl-1-ylidene))bis(hydrazine-1-carboximidamide) dihydrochloride]",MIC,[14]; converted from μM,> 226 µg/mL
same,MIC,[14]; range 0.5 to 500 μM,> 500 µM
same,MIC,[1]; converted from μM,> 226 µg/mL
same,MIC,[1]; range 0.5 to 500 μM,> 500 µM
same,MIC,[2]; converted from μM,> 226 µg/mL
same,MIC,[2]; range 0.5 to 500 μM,> 500 µM
same,MIC,[3]; converted from μM,> 226 µg/mL
same,MIC,[3]; range 0.5 to 500 μM,> 500 µM
same,MIC,[15]; converted from μM,> 226 µg/mL
same,MIC,[15]; range 0.5 to 500 μM,> 500 µM
same,MIC,[4]; converted from μM,0.5 µg/mL
same,MIC,[4]; range 0.5 to 500 μM,1 µM
same,MIC,[5]; converted from μM,0.5 µg/mL
same,MIC,[5]; range 0.5 to 500 μM,1 µM
same,MIC,[16]; converted from μM,0.5 to 0.9 µg/mL
same,MIC,[16]; range 0.5 to 500 μM,1 to 2 µM
same,MIC,[6]; converted from μM,> 226 µg/mL
same,MIC,[6]; range 0.5 to 500 μM,> 500 µM
same,MIC,[7]; converted from μM,> 226 µg/mL
same,MIC,[7]; range 0.5 to 500 μM,> 500 µM
same,MIC,[8]; converted from μM,0.5 µg/mL
same,MIC,[8]; range 0.5 to 500 μM,1 µM
same,MIC,"[17]; C. albicans ATCC 1003, converted from μg/mL",34.6 µM
same,MIC,[17],15.6 µg/mL
same,MIC,[18]; converted from μg/mL,17.3 µM
same,MIC,[18],7.8 µg/mL
same,MIC,[19]; converted from μg/mL,34.6 µM
same,MIC,[19],15.6 µg/mL
same,MIC,[20]; converted from μg/mL,69.3 µM
same,MIC,[20],31.3 µg/mL
same,MIC,[21]; converted from μg/mL,8.6 µM
same,MIC,[21],3.9 µg/mL
same,MIC,[22]; converted from μg/mL,> 69.3 µM
same,MIC,[22],> 31.3 µg/mL
same,MIC,[23]; converted from μg/mL,17.3 µM
same,MIC,[23],7.8 µg/mL
same,increase in relative MIC values,[9]; [25],8 fold
same,increase in relative MIC values,[10]; [25],16 fold
same,increase in relative MIC values,[11]; [25],16 fold
same,increase in relative MIC values,[12]; [25],4 fold
"OO [Compound H2O2, H2O2, reference compound]",intracellular ROS production,[24],induced ROS production
